Paper PMC12856317, “A reversible feedback mechanism regulating mitochondrial heme synthesis” (The Journal of Biological Chemistry, 2025)

Columns and labels:
Experiment in all cases: Isothermal titration calorimetry, hemin-protein interaction
Type in all cases: binding
Conditions in all cases: ITC, 25 °C
[1] = molecular target: T1, WT human ALAS2 (residues 54–587) (Homo sapiens, UniProt P22557)
T1 construct: His6-SUMO (N, cleaved yes); made in house; host or cells: Escherichia coli BL21-Codon Plus (DE3)-RIL
T1 sequence (P22557 54-587): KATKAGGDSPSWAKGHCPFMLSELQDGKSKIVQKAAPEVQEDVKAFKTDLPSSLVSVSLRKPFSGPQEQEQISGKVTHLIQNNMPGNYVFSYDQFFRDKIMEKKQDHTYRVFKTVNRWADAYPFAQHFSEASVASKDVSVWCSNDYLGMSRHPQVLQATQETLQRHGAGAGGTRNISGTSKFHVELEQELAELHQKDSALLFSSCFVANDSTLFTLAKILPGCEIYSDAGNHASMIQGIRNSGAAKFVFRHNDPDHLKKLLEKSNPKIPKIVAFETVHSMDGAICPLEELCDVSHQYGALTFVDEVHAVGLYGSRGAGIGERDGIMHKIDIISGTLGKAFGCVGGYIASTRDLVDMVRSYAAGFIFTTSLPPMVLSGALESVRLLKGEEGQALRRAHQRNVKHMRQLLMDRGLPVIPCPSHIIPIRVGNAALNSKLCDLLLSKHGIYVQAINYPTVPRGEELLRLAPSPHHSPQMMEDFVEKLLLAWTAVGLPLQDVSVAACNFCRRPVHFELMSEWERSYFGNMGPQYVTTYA
Experimental: (§1) Binding curves of the hemin-protein interaction were determined using Nano-ITC instrument (TA instruments) at 25 °C. Hemin was dissolved in 1 M NaOH and autoclaved to prepare a stock solution of 746 μM, ε385nm = 58,440 M^−1 cm^−1. The stock solution was diluted to 1.5 μM in titration buffer containing 25 mM Hepes, pH 7, 150 mM KCl, and 0.5 mM TCEP. Protein samples were dialyzed into the titration buffer and diluted to a final concentration of 40 μM. Fixed volumes of protein were injected at 200-s intervals into the cell containing hemin. An A + B hetero-association model was used to determine the thermodynamic parameters for each variant. Data were integrated and analyzed using NITPIC and SEDPHAT and visualized using GUSSI ([71], [72], [73]).

[2] = molecular target: T2, human ALAS2 ΔC (residues 54–547) (Homo sapiens, UniProt P22557)
T2 construct: a truncation without the C-terminal CXXC motif (ΔC, residues 54–547); His6-SUMO (N, cleaved yes); made in house; host or cells: Escherichia coli BL21-Codon Plus (DE3)-RIL
T2 sequence (P22557 54-547): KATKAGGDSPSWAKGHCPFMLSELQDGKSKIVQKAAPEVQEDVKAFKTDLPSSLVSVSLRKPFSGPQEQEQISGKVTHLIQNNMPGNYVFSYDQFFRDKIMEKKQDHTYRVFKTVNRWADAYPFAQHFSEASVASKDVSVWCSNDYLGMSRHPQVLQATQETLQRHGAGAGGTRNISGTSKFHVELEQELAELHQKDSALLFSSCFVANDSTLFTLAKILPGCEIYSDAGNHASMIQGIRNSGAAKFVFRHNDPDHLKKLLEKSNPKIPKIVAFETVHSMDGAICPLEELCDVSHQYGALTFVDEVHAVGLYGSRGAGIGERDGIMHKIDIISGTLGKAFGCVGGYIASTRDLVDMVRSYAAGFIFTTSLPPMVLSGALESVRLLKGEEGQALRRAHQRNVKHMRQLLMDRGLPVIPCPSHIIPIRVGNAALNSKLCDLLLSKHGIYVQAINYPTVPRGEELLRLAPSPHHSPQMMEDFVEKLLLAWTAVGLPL
Experimental: as §1

[3] = molecular target: T3, human ALAS2 ΔN (residues 75–587) (Homo sapiens, UniProt P22557)
T3 construct: a truncation without HRM3 (ΔN, residues 75–587); His6-SUMO (N, cleaved yes); made in house; host or cells: Escherichia coli BL21-Codon Plus (DE3)-RIL
T3 sequence (P22557 75-587): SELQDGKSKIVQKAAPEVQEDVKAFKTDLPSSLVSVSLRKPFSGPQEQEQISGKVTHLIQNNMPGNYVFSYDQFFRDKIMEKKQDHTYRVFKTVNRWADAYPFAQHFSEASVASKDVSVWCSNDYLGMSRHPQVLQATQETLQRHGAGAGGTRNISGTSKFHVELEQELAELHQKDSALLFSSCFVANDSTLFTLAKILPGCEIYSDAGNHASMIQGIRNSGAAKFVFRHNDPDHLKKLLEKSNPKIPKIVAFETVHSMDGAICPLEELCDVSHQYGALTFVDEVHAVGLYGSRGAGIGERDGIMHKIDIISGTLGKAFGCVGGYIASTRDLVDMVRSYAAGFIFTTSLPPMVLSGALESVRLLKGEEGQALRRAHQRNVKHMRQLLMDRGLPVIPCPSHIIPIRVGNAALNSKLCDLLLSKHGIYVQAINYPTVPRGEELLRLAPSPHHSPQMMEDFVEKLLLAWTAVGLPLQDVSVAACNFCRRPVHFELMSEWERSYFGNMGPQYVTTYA
Experimental: as §1

[4] = 95% confidence interval in brackets

ferric chloride heme [hemin]
ΔG [1]: -9.05 kcal/mol | ΔS [1]: −1.25 kcal/mol K | Kd [1, 4]: 232 nM | ΔH [1, 4]: −382 [−440, −342] kcal/mol | Kd ([1]; 95% confidence interval in brackets, listed as heme): ~230 nM | ΔG [2]: -8.94 kcal/mol | ΔS [2]: −1.80 kcal/mol K | Kd [2, 4]: 279 nM | ΔH [2, 4]: −544 [−604, −499] kcal/mol | ΔG [3]: -8.50 kcal/mol | ΔS [3]: −3.35 kcal/mol K | Kd [3, 4]: 589 nM | ΔH [3, 4]: −1006 [−1432, −810] kcal/mol
